These results are taken from patent US20130225583A1, “SUBSTITUTED AMINO-TRIAZOLYL PDE10 INHIBITORS” (priority 2010, published 2013).

pKi: −log10 of the molar value.

The target in this assay is T1, human PDE10A2 (Homo sapiens, UniProt Q9Y233).
T1 construct: made in house; host or cells: AD293 cells, transiently transfected; The cytosolic supernatant of the lysate served as the enzyme
T1 sequence (Q9Y233 267-1055): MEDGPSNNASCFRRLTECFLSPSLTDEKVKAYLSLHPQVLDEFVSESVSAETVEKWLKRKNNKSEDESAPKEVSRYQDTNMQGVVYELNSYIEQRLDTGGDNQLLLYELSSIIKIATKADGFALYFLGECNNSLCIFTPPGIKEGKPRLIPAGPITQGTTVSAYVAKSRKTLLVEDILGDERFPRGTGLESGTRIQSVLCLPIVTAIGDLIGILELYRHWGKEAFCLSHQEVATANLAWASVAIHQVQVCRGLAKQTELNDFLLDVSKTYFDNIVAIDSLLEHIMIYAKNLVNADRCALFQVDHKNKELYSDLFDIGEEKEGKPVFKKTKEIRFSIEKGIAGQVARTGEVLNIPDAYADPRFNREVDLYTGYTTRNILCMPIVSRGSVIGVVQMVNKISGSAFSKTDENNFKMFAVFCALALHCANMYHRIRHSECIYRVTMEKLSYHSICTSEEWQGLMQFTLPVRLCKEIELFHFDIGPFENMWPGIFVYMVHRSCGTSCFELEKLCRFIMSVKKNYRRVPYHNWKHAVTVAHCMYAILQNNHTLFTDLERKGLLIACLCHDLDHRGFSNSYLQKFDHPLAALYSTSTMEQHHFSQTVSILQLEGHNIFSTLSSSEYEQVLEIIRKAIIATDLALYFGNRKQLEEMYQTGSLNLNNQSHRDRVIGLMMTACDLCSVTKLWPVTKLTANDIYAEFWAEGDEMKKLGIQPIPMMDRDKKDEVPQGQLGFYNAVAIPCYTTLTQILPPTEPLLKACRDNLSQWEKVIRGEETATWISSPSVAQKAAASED
Kind of assay: PDE10 fluorescence polarization (IMAP FP) inhibition assay. It counts as biochemical. Particulars: apparent inhibition constant; FAM-labeled cAMP 50 nM; lysate of AD293 cells transfected with human PDE10A2; room temperature; read-out: PDE10a Ki. On the procedure: The activity of the compounds in accordance with the present invention as PDE10 inhibitors may be readily determined without undue experimentation using a fluorescence polarization (FP) methodology that is well known in the art (Huang, W., et al., J. Biomol Screen, 2002, 7: 215).
In a typical experiment the PDE 10 inhibitory activity of the compounds of the present invention was determined in accordance with the following experimental method. PDE 10A2 was amplified from human fetal brain cDNA (Clontech, Mountain View, Calif.) using a forward primer corresponding to nucleotides 56-77 of human PDE10A2 (Accession No. AF127480, Genbank Identifier 4894716), containing a Kozak consensus sequence, and a reverse primer corresponding to nucleotides 2406-2413 of human PDE10A2 (Accession No. AF127480, Genbank Identifier 4894716). Amplification with Easy-A polymerase (Stratagene, La Jolla, Calif.) was 95° C. for 2 minutes followed by thirty three cycles of 95° C. for 40 seconds, 55° C. for 30 seconds, and 72° C. for 2 minutes 48 seconds. Final extension was 72° C. for 7 minutes. The PCR product was TA cloned into pcDNA3.2-TOPO (Invitrogen, Carlsbad, Calif.) according to standard protocol. AD293 cells with 70-80% confluency were transiently transfected with human PDE10A2/pcDNA3.2-TOPO using Lipofectamine 2000 according to manufacturer specifications (Invitrogen, Carlsbad, Calif.). Cells were harvested 48 hours post-transfection and lysed by sonication (setting 3, 10×5 sec pulses) in a buffer containing 20 mM HEPES, 1 mM EDTA and protease inhibitor cocktail (Roche). Lysate was collected by centrifugation at 75,000×g for 20 minutes. Supernatant containing the cytoplasmic fraction was used for evaluation of PDE10A2 activity. The fluorescence polarization assay for cyclic nucleotide phosphodiesterases was performed using an IMAP® FP kit supplied by Molecular Devices, Sunnyvale, Calif. (product # R8139). IMAP® technology has been applied previously to phosphodiesterase assays (Huang, W., et al., J. Biomol Screen, 2002, 7: 215). Assays were performed at room temperature in 384-well microtiter plates with an incubation volume of 20.2 μL. Solutions of test compounds were prepared in DMSO and serially diluted with DMSO to yield 8 μL of each of 10 solutions differing by 3-fold in concentration, at 32 serial dilutions per plate. 100% inhibition is determined using a known PDE 10 inhibitor, which can be any compound that is present at 5,000 times its Ki value in the assay described as follows, such as papaverine (see Siuciak, et al. Neuropharmacology (2006) 51:386-396; Becker, et al. Behav Brain Res (2008) 186(2):155-60; Threlfell, et al., J Pharmacol Exp Ther (2009) 328(3):785-795), 2-{4-[pyridin-4-yl-1-(2,2,2-trifluoroethyl)-1H-pyrazol-3-yl]phenoxymethyl}quinoline succinic acid or 2-[4-(1-methyl-4-pyridin-4-yl-1H-pyrazol-3-yl)-phenoxymethyl]quinoline succinic acid (see Schmidt, et al. J Pharmacol Exp Ther (2008) 325:681-690; Threlfell, et al., J Pharmacol Exp Ther (2009) 328(3): 785-795). 0% of inhibition is determined by using DMSO (1% final concentrations). A Labcyte Echo 555 (Labcyte, Sunnyvale, Calif.) is used to dispense 200 nL from each well of the titration plate to the 384 well assay plate. A solution of enzyme ( 1/7000 dilution from aliquots; sufficient to produce 20% substrate conversion) and a separate solution of FAM-labeled cAMP PDE from Molecular Devices (product # R7506), at a final concentration of 50 nM are made in the assay buffer (10 mM Tris HCl, pH 7.2, 10 mM MgCl2, 0.05% NaN3 0.01% Tween-20, and 1 mM DTT). The enzyme is added to the assay plates by the addition of 10 μL of enzyme solution to each well, shaken to mix and incubated at room temperature for 60 minutes. The substrate is then added to the assay plates by the addition of 10 μL of substrate solution to each well, shaken to mix, and incubated at room temperature for 60 minutes. […]
In general terms: Fluorescence polarisation rises when a labelled molecule tumbles more slowly, as on binding a larger partner.
As usually defined, the pKi is the Ki on a negative log10 scale, so that one unit is a factor of ten. `COc1ccc(Cc2nc(N)nn2-c2cc(OCC3(c4ccccc4)CC3(F)F)ncn2)cc1OC` (centres unmarked) [1-46, 1-(6-((2,2-difluoro-1-phenylcyclopropyl)methoxy)pyrimidin-4-yl)-5-(3,4-dimethoxybenzyl)-1H-1,2,4-triazol-3-amine]: the pKi is 8.25.
Turning to `COc1ccc(Cc2nc(N)nn2-c2cc(OCc3ccccc3-c3cccs3)ncn2)cc1OC` [1-43, 5-(3,4-dimethoxybenzyl)-1-(6-(2-(thiophen-2-yl)benzyloxy)pyrimidin-4-yl)-1H-1,2,4-triazol-3-amine], the pKi is 7.72.
To `COc1ccc(CNc2nc(Cc3ccc(OC)c(OC)c3)n(-c3cc(Oc4ccccn4)nc(C)n3)n2)cc1` [1-80, 5-(3,4-dimethoxybenzyl)-N-(4-methoxybenzyl)-1-(2-methyl-6-(pyridin-2-yloxy)pyrimidin-4-yl)-1H-1,2,4-triazol-3-amine] belongs 6.31; to `COc1ccc(Cc2nc(N)nn2-c2cc(=O)n(CCN3CCNC3=O)cn2)cc1OC` [1-57, 6-(3-amino-5-(3,4-dimethoxybenzyl)-1H-1,2,4-triazol-1-yl)-3-(2-(2-oxoimidazolidin-1-yl)ethyl)pyrimidin-4(3H)-one], 6.96; to `CCCn1cnc(-n2nc(N)nc2Cc2ccc(OC)c(OC)c2)cc1=O` [1-71, 6-(3-amino-5-(3,4-dimethoxybenzyl)-1H-1,2,4-triazol-1-yl)-3-propylpyrimidin-4(3H)-one], 6.21.
`COc1ccc(Cc2nc(N)nn2-c2cc(=O)n(CCN3CCOCC3)cn2)cc1OC` [1-48, 6-(3-amino-5-(3,4-dimethoxybenzyl)-1H-1,2,4-triazol-1-yl)-3-(2-morpholinoethyl)pyrimidin-4(3H)-one]: the negative logarithm of the Ki (pKi) is over 8.42.
The result for `COc1ccc(Cc2nc(N)nn2-c2cc(Oc3cccnc3)nc(C)n2)cc1OC` [1-79, 5-(3,4-dimethoxybenzyl)-1-(2-methyl-6-(pyridin-3-yloxy)pyrimidin-4-yl)-1H-1,2,4-triazol-3-amine] reads 6.89; that for `COc1ccc(Cc2nc(N)nn2-c2cc(=O)n(Cc3cn4ccccc4n3)cn2)cc1OC` [1-55, 6-(3-amino-5-(3,4-dimethoxybenzyl)-1H-1,2,4-triazol-1-yl)-3-(imidazo[1,2-a]pyridin-2-ylmethyl)pyrimidin-4(3H)-one], 6.19; that for `COc1ccc(Cc2nc(N)nn2-c2cc(=O)n(CCc3cccs3)cn2)cc1OC` [1-51, 6-(3-amino-5-(3,4-dimethoxybenzyl)-1H-1,2,4-triazol-1-yl)-3-(2-(thiophen-2-yl)ethyl)pyrimidin-4(3H)-one], 7.64.
To `COc1ccc(Cc2nc(N)nn2-c2ccc(Cl)c(Cl)c2)cc1OC` [1-16, 1-(3,4-dichlorophenyl)-5-(3,4-dimethoxybenzyl)-1H-1,2,4-triazol-3-amine] belongs 6.81.
To `COc1ccc(Cc2nc(N)nn2-c2cc(=O)n(C(C)C)cn2)cc1OC` [1-69, 6-(3-amino-5-(3,4-dimethoxybenzyl)-1H-1,2,4-triazol-1-yl)-3-isopropylpyrimidin-4(3H)-one] belongs 6.27; to `COc1ccc(Cc2nc(N)nn2-c2cc(OC3CCCCC3)ncn2)cc1OC` [1-61, 1-(6-(cyclohexyloxy)pyrimidin-4-yl)-5-(3,4-dimethoxybenzyl)-1H-1,2,4-triazol-3-amine], 7.72.
On to `COc1ccc(Cc2nc(N)nn2-c2cc(OCc3nc4ccccc4[nH]3)ncn2)cc1OC` [1-40, 1-(6-((1H-benzo[d]imidazol-2-yl)methoxy)pyrimidin-4-yl)-5-(3,4-dimethoxybenzyl)-1H-1,2,4-triazol-3-amine], for which the pKi is 7.72.
To `COc1ccc(Cc2nc(N)nn2-c2cc(=O)n(CC3(c4ccccc4)CC3(F)F)cn2)cc1OC` (centres unmarked) [1-59, 6-(3-amino-5-(3,4-dimethoxybenzyl)-1H-1,2,4-triazol-1-yl)-3-((2,2-difluoro-1-phenylcyclopropyl)methyl)pyrimidin-4(3H)-one] belongs 6.66.
The result for `COc1ccc(Cc2nc(N)nn2-c2cc(=O)n(CCc3ccccn3)cn2)cc1OC` [1-47, 6-(3-amino-5-(3,4-dimethoxybenzyl)-1H-1,2,4-triazol-1-yl)-3-(2-(pyridin-2-yl)ethyl)pyrimidin-4(3H)-one] reads 7.15.
To `COc1ccc(Cc2nc(N)nn2-c2cc(OC(C)C)ncn2)cc1OC` [1-60, 5-(3,4-dimethoxybenzyl)-1-(6-isopropoxypyrimidin-4-yl)-1H-1,2,4-triazol-3-amine] belongs 6.43; to `COc1ccc(Cc2nc(N)nn2-c2cc(=O)n(CC3CCC3)cn2)cc1OC` [1-70, 6-(3-amino-5-(3,4-dimethoxybenzyl)-1H-1,2,4-triazol-1-yl)-3-(cyclobutylmethyl)pyrimidin-4(3H)-one], 6.19.
`COc1ccc(CNc2nc(Cc3ccc(OC)c(OC)c3)n(-c3cc(Oc4ccccn4)nc(C)n3)n2)cc1` [1-76, 5-(3,4-dimethoxybenzyl)-N-(4-methoxybenzyl)-1-(2-methyl-6-(pyridin-2-yloxy)pyrimidin-4-yl)-1H 1,2,4-triazol-3-amine]: the pKi is over 8.42.
On to `COc1ccc(Cc2nc(N)nn2-c2cc(OCc3ccc4ccccc4n3)ncn2)cc1OC` [1-68, 5-(3,4-dimethoxybenzyl)-1-(6-(quinolin-2-ylmethoxy)pyrimidin-4-yl)-1H-1,2,4-triazol-3-amine], for which the pKi was 6.12.
The result for `CCCOc1cc(-n2nc(N)nc2Cc2ccc(OC)c(OC)c2)ncn1` [1-63, 5-(3,4-dimethoxybenzyl)-1-(6-propoxypyrimidin-4-yl)-1H-1,2,4-triazol-3-amine] reads 7.46.
As for `COc1ccc(Cc2nc(N)nn2-c2cc(OCc3ccc(-c4ccncc4)cc3)ncn2)cc1OC` [1-42, 5-(3,4-dimethoxybenzyl)-1-(6-(4-(pyridin-4-yl)benzyloxy)pyrimidin-4-yl)-1H-1,2,4-triazol-3-amine], the pKi is 6.57.
For the compound `COc1ccc(Cc2nc(N)nn2-c2cc(OCc3cn4ccccc4n3)ncn2)cc1OC` [1-41, 5-(3,4-dimethoxybenzyl)-1-(6-(imidazo[1,2-a]pyridin-2-ylmethoxy)pyrimidin-4-yl)-1H-1,2,4-triazol-3-amine], the pKi was 6.74.
The result for `COc1ccccc1COc1cc(-n2nc(N)nc2Cc2ccc(OC)c(OC)c2)ncn1` [1-35, 5-(3,4-dimethoxybenzyl)-1-(6-(2-methoxybenzyloxy)pyrimidin-4-yl)-1H-1,2,4-triazol-3-amine] reads 6.06; that for `COc1ccc(Cc2nc(N)nn2-c2cc(OCC3CCC3)ncn2)cc1OC` [1-62, 1-(6-(cyclobutylmethoxy)pyrimidin-4-yl)-5-(3,4-dimethoxybenzyl)-1H-1,2,4-triazol-3-amine], 8.07; that for `COc1ccc(Cc2nc(N)nn2-c2cc(OCC(C)(C)C)ncn2)cc1OC` [1-64, 5-(3,4-dimethoxybenzyl)-1-(6-(neopentyloxy)pyrimidin-4-yl)-1H-1,2,4-triazol-3-amine], 7.89.
To `COc1ccc(Cc2nc(N)nn2-c2ccccn2)cc1OC` [1-14, 5-(3,4-dimethoxybenzyl)-1-(pyridin-2-yl)-1H-1,2,4-triazol-3-amine] belongs 6.60.
